Source: patent US20090011400A1, “Substrate switched ammonia lyases and mutases” (The Salk Institute for Biological Studies and The Regents …, priority 2006, published 2009)

How the values were obtained:
[1] = biological target: T1, Rhodobacter sphaeroides tyrosine ammonia lyase (RsTAL), wild type (Cereibacter sphaeroides, UniProt Q3IWB0); assay: Ammonia lyase steady-state kinetics, wild type RsTAL; assay type: biochemical; details: wt RsTAL
T1 construct: octahistidine (His8), thrombin-cleavable (N, cleaved yes); made in house; host or cells: E. coli BL21(DE3)
T1 sequence (Q3IWB0 1-523): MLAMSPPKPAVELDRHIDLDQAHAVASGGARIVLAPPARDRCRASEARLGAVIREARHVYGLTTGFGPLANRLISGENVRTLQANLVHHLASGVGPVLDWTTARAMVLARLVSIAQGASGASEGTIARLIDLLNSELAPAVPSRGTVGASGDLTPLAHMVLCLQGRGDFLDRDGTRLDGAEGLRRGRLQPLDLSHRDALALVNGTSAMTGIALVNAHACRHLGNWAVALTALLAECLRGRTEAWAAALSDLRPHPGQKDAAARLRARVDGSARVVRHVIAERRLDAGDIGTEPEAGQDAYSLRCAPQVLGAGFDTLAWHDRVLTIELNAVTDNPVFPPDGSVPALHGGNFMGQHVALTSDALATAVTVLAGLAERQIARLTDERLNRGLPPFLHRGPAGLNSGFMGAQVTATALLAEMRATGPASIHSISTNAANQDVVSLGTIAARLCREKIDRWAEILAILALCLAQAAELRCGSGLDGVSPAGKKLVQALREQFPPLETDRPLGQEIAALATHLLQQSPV
Protocol: (§1) TAL activity was measured spectrophotometrically by monitoring the formation of a conjugated aryl-acid product. The conversion of L-Tyr to p-coumarate was followed at 310 nm and L-Phe to cinnamate at 280 nm. The assay mixture (total volume 0.5 ml) contained 0.1 M Tris HCl (pH 8.5), and for each fixed amount of TAL, eight different initial concentrations of amino acid substrate. After pre-incubation of the enzyme at 37° C. for 2 min, reactions were initiated by the addition of substrate, and formation of product was monitored for 5 min. For wild type RsTAL, activity was assayed with 7.5 μg protein and initial L-Tyr concentrations between 0.01 and 2.4 mM, and PAL activity was assayed with 30 μg protein and initial L-Phe concentrations between 3.2 and 51.2 mM. For the RsTAL H89F mutant, PAL activity was assayed with 10 μg protein and initial L-Phe concentrations between 0.05 and 5.2 mM. Each series of assays were performed in triplicate, and a Hanes plot was used for the estimation of steady-state kinetic constants.

[2] = system: PcPAL (Petroselinum crispum phenylalanine ammonia lyase); details: cited from earlier work
[3] = system: SeTAL (Saccharothrix espanaensis tyrosine ammonia lyase); details: cited from earlier work
[4] = system: RcTAL (Rhodobacter capsulatus tyrosine ammonia lyase); details: cited from earlier work
[5] = biological target: T2, Rhodobacter sphaeroides tyrosine ammonia lyase (RsTAL) variant H89F (His89Phe) (Cereibacter sphaeroides, UniProt Q3IWB0, H89F); assay: Ammonia lyase steady-state kinetics, H89F RsTAL
T2 sequence (Q3IWB0 1-523 H89F): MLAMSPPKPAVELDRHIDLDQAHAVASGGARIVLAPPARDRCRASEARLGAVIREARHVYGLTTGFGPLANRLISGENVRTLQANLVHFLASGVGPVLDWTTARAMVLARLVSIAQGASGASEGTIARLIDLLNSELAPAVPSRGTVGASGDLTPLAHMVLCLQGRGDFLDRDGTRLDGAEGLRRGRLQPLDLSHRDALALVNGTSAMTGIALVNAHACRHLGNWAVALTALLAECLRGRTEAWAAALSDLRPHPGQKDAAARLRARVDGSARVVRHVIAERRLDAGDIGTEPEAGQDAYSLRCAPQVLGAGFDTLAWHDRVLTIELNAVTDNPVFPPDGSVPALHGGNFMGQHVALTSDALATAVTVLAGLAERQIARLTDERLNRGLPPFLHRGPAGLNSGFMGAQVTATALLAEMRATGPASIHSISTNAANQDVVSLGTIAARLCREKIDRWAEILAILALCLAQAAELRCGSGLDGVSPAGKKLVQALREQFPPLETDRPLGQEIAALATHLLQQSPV
Protocol: (§2) TAL activity was measured spectrophotometrically by monitoring the formation of a conjugated aryl-acid product. The conversion of L-Tyr to p-coumarate was followed at 310 nm and L-Phe to cinnamate at 280 nm. The assay mixture (total volume 0.5 ml) contained 0.1 M Tris HCl (pH 8.5), and for each fixed amount of TAL, eight different initial concentrations of amino acid substrate. After pre-incubation of the enzyme at 37° C. for 2 min, reactions were initiated by the addition of substrate, and formation of product was monitored for 5 min. […] For the RsTAL H89F mutant, PAL activity was assayed with 10 μg protein and initial L-Phe concentrations between 0.05 and 5.2 mM. Each series of assays were performed in triplicate, and a Hanes plot was used for the estimation of steady-state kinetic constants.

[6] = system: ZmPAL (Z. mays phenylalanine ammonia lyase); details: cited from earlier work
[7] = system: PlPAL (Photorhabdus luminescens phenylalanine ammonia lyase); details: cited from earlier work
[8] = system: SmPAL (Streptomyces maritimus phenylalanine ammonia lyase); details: cited from earlier work
RsTAL = biological target: T3, RsTAL (Cereibacter sphaeroides, UniProt Q3IWB0); assay: Crystal soaking experiments of RsTAL with ligands; assay type: binding, Rhodobacter sphaeroides; details: wild type RsTAL crystals soaked with ligand
T3 construct: His8 (octahistidine), thrombin-cleavable (N, cleaved yes); made in house; host or cells: E. coli BL21(DE3)
T3 sequence (Q3IWB0 1-523): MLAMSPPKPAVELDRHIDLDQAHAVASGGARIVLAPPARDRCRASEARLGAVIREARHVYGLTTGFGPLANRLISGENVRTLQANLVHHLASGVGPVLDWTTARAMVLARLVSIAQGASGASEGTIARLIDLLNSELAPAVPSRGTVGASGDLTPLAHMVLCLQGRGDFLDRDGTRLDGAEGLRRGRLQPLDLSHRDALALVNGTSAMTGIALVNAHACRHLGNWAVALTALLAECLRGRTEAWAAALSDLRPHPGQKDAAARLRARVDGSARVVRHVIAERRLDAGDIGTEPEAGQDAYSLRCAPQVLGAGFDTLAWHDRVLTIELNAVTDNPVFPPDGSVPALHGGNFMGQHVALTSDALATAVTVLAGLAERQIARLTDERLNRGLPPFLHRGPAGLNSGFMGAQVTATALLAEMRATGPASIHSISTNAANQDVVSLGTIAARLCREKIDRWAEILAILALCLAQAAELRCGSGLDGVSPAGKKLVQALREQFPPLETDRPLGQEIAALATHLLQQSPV
Protocol: Monoclinic crystals of RsTAL (space group […]) were grown from a 1:1 mixture of protein solution (20 mg/ml in 12.5 mM Tris-HCl, pH 7.5, 50 mM NaCl) and a reservoir solution (0.1 M MOPSO—Na^+, pH 7.0, 7% (w/v) polyethylene glycol 8000, 0.3 M ammonium acetate, 2 mM dithiothreitol, 35 mM cyclohexylbutanoyl-N-hydroxyethylglucamide) using vapor diffusion against reservoir solutions at 4° C. Crystal growth typically occurred over a period of one to three weeks and was expedited through microseeding. […] Crystals of RsTAL in complex with small molecule ligands were produced by soaking crystals for 24-48 hrs in reservoir solutions supplemented with 10-20 mM coumaric acid, caffeic acid, cinnamic acid or AIP.

[9] = substrate: N[C@@H](Cc1ccccc1)C(=O)O; assay: purified protein, by the assay type; details: other: H89F RsTAL, pH 8.5, 37° C.
Protocol: as §2

[10] = substrate: N[C@@H](Cc1ccccc1)C(=O)O; assay: Ammonia lyase steady-state kinetics, wild type RsTAL; assay type: biochemical, Rhodobacter sphaeroides; details: other: wt RsTAL, pH 8.5, 37° C.
Protocol: as §1

[11] = substrate: N[C@@H](Cc1ccc(O)cc1)C(=O)O; assay: as above; assay type: biochemical, Rhodobacter sphaeroides; details: other: wt RsTAL, pH 8.5, 37° C.
Protocol: as §1

[12] = PAL activity: spectrophotometric steady-state kinetics, L-Phe to cinnamate; assay type: biochemical; details: substrate L-Phe
Protocol: as §1

With `N[C@@H](Cc1ccc(O)c(O)c1)C(=O)O` [L-DOPA, L-3,4-dihydroxyphenylalanine] the “activity with L-DOPA” value ([1]; deamination) was “significant activity”.

For `N[C@@H](Cc1ccccc1)C(=O)O` [L-Phe], the Km [2] is given as 17.2 µM, the kcat [2] is given as 22 s⁻¹ and the Km [3] is given as 2860 µM. The kcat [3] was 0.0038 s⁻¹, the Km [4] was 1280 µM and the kcat [4] was 15.1 s⁻¹. The kcat ([5]; pH 8.5, 37° C.) was 8.15 s⁻¹, the Km [6] was 270 µM and the kcat [6] was 10 s⁻¹. The Km [7] was 320 µM, the kcat [7] was 0.8 s⁻¹ and the Km [8] was 23 µM. The kcat [8] was 0.0048 s⁻¹.

For `N[C@@H](Cc1ccc(O)cc1)C(=O)O` [L-Tyr], the Km [2] is given as 2500 µM, the kcat [2] is given as 0.3 s⁻¹ and the Km [3] is given as 15.5 µM. For the same molecule, the kcat [3] was 0.015 s⁻¹, the Km [4] was 15.6 µM and the kcat [4] was 27.7 s⁻¹. The “Km better for L-Tyr as compared to L-Phe” value ([1]; L-Tyr vs L-Phe) was 150 fold, the kcat ([1]; pH 8.5, 37° C.) was 4.32 s⁻¹ and the “activity with L-Tyr” value [5] was “lacks activity”. The Km [6] was 19 µM and the kcat [6] was 0.9 s⁻¹.

For `O=C(O)C=Cc1ccccc1` [cinnamic acid], the “binding observed in RsTAL crystals (in words)” value (RsTAL) was “no significant binding”.

B1: Rhodobacter sphaeroides tyrosine ammonia lyase (RsTAL) variant H89F (His89Phe) (Cereibacter sphaeroides 2.4.1; H89F) (protein)
chain: MLAMSPPKPAVELDRHIDLDQAHAVASGGARIVLAPPARDRCRASEARLGAVIREARHVYGLTTGFGPLANRLISGENVRTLQANLVHFLASGVGPVLDWTTARAMVLARLVSIAQGASGASEGTIARLIDLLNSELAPAVPSRGTVGASGDLTPLAHMVLCLQGRGDFLDRDGTRLDGAEGLRRGRLQPLDLSHRDALALVNGTSAMTGIALVNAHACRHLGNWAVALTALLAECLRGRTEAWAAALSDLRPHPGQKDAAARLRARVDGSARVVRHVIAERRLDAGDIGTEPEAGQDAYSLRCAPQVLGAGFDTLAWHDRVLTIELNAVTDNPVFPPDGSVPALHGGNFMGQHVALTSDALATAVTVLAGLAERQIARLTDERLNRGLPPFLHRGPAGLNSGFMGAQVTATALLAEMRATGPASIHSISTNAANQDVVSLGTIAARLCREKIDRWAEILAILALCLAQAAELRCGSGLDGVSPAGKKLVQALREQFPPLETDRPLGQEIAALATHLLQQSPV
B1 showed a Km [9] of 434 µM.

B2: Rhodobacter sphaeroides tyrosine ammonia lyase (RsTAL), wild type (Cereibacter sphaeroides 2.4.1) (protein)
chain: MLAMSPPKPAVELDRHIDLDQAHAVASGGARIVLAPPARDRCRASEARLGAVIREARHVYGLTTGFGPLANRLISGENVRTLQANLVHHLASGVGPVLDWTTARAMVLARLVSIAQGASGASEGTIARLIDLLNSELAPAVPSRGTVGASGDLTPLAHMVLCLQGRGDFLDRDGTRLDGAEGLRRGRLQPLDLSHRDALALVNGTSAMTGIALVNAHACRHLGNWAVALTALLAECLRGRTEAWAAALSDLRPHPGQKDAAARLRARVDGSARVVRHVIAERRLDAGDIGTEPEAGQDAYSLRCAPQVLGAGFDTLAWHDRVLTIELNAVTDNPVFPPDGSVPALHGGNFMGQHVALTSDALATAVTVLAGLAERQIARLTDERLNRGLPPFLHRGPAGLNSGFMGAQVTATALLAEMRATGPASIHSISTNAANQDVVSLGTIAARLCREKIDRWAEILAILALCLAQAAELRCGSGLDGVSPAGKKLVQALREQFPPLETDRPLGQEIAALATHLLQQSPV
notes: octahistidine (His8), thrombin-cleavable (N, cleaved yes); made in house; host or cells: E. coli BL21(DE3)
For B2, the Km [10] was 11400 µM, the kcat [10] was 13.1 s⁻¹ and the kcat/Km [10] was 1100 M⁻¹ s⁻¹. For the same molecule, the Km [11] was 74.2 µM.

B3: H89F RsTAL: engineered RsTAL variant with the single amino acid substitution H89F (His 89 replaced by Phe) (protein)
chain: MLAMSPPKPAVELDRHIDLDQAHAVASGGARIVLAPPARDRCRASEARLGAVIREARHVYGLTTGFGPLANRLISGENVRTLQANLVHFLASGVGPVLDWTTARAMVLARLVSIAQGASGASEGTIARLIDLLNSELAPAVPSRGTVGASGDLTPLAHMVLCLQGRGDFLDRDGTRLDGAEGLRRGRLQPLDLSHRDALALVNGTSAMTGIALVNAHACRHLGNWAVALTALLAECLRGRTEAWAAALSDLRPHPGQKDAAARLRARVDGSARVVRHVIAERRLDAGDIGTEPEAGQDAYSLRCAPQVLGAGFDTLAWHDRVLTIELNAVTDNPVFPPDGSVPALHGGNFMGQHVALTSDALATAVTVLAGLAERQIARLTDERLNRGLPPFLHRGPAGLNSGFMGAQVTATALLAEMRATGPASIHSISTNAANQDVVSLGTIAARLCREKIDRWAEILAILALCLAQAAELRCGSGLDGVSPAGKKLVQALREQFPPLETDRPLGQEIAALATHLLQQSPV
modifications: H89F mutant of Rhodobacter sphaeroides tyrosine ammonia lyase
For B3, the “increase in kcat/Km in comparison to wild type RsTAL” value [12] was 17 fold.
